Legend:
[1] = target: T1, human glucocorticoid receptor (GR) complex (Homo sapiens, UniProt P04150); assay: Glucocorticoid receptor competitive binding assay (fluorescence polarization); settings: competition with TAMRA-labeled dexamethasone, result in words only
T1 construct: made in house; host or cells: insect expression system (baculovirus lysate)
T1 sequence (P04150 1-777): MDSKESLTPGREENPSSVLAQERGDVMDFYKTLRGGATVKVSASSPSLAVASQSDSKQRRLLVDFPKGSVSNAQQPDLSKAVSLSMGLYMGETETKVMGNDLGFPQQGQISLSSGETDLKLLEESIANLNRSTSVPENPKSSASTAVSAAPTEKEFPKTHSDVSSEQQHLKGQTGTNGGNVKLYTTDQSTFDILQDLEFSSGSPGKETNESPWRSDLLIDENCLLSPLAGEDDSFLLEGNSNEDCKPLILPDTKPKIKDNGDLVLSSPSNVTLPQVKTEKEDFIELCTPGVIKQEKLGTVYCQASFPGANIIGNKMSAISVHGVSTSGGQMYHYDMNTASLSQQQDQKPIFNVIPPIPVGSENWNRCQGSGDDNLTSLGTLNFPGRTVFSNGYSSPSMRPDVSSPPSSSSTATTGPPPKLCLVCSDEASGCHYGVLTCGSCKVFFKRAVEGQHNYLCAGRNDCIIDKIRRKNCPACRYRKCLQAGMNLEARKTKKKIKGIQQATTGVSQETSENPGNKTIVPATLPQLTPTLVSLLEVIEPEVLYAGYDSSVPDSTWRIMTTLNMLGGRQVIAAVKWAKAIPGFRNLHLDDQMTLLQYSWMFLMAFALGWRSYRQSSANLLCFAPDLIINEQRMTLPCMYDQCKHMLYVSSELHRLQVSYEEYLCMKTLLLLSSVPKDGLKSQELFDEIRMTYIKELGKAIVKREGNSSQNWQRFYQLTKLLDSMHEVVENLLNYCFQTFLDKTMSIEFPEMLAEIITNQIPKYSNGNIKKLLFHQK
Experimental: Compounds of the invention were evaluated for binding to the steroid receptor by a fluorescence polarization competitive binding assay.
The wavelengths for maximum excitation and emission of the fluorescent probe should first be measured. An example of such a probe is rhodamine (TAMRA)-labeled dexamethasone.
The affinity of the probe for the steroid receptor was then determined in a titration experiment. The fluorescence polarization value of the probe in assay buffer was measured on an SLM-8100 fluorometer using the excitation and emission maximum values described above. Aliquots of expression vector lysate were added and fluorescence polarization was measured after each addition until no further change in polarization value was observed. Non-linear least squares regression analysis was used to calculate the dissociation constant of the probe from the polarization values obtained for lysate binding to the probe.
This assay uses fluorescence polarization (FP) to quantitate the ability of test compounds to compete with tetramethyl rhodamine (TAMRA)-labeled dexamethasone for binding to a human glucocorticoid receptor (GR) complex prepared from an insect expression system. The assay buffer was: 10 mM TES, 50 mM KCl, 20 mM Na2MoO4.2H2O, 1.5 mM EDTA, 0.04% w/v CHAPS, 10% v/v glycerol, 1 mM dithiothreitol, pH 7.4. Test compounds were dissolved to 1 mM in neat DMSO and then further diluted to 10× assay concentration in assay buffer supplemented with 10% v/v DMSO. Test compounds were serially diluted at 10× assay concentrations in 10% DMSO-containing buffer in 96-well polypropylene plates. Binding reaction mixtures were prepared in 96-well black Dynex microtiter plates by sequential addition of the following assay components to each well: 15 μL of 10× test compound solution, 85 μL of GR-containing baculovirus lysate diluted 1:170 in assay buffer, and 50 μL of 15 nM TAMRA-labeled dexamethasone. Positive controls were reaction mixtures containing no test compound; negative controls (blanks) were reaction mixtures containing 0.7 μM to 2 μM dexamethasone. […] IC50 values were determined by iterative non-linear curve fitting of the FP signal data to a 4-parameter logistic equation.

[2] = system: Human osteosarcoma MG-63 cells; assay: Inhibition of osteocalcin production from osteoblast cell line MG-63; format: cell-based; settings: Vitamin D 10 nM, 48 hours, osteocalcin ELISA, result in words only
Experimental: Human osteosarcoma MG-63 cells (ATCC, Cat. No. CRL-1427) are plated on 96 well plates at 20,000 cells per well the day before use in 200 μL media of 99% D-MEM/F-12 (Gibco-Invitrogen, Cat. No. 11039-021), supplemented with 1% penicillin and streptomycin (Gibco-Invitrogen, Cat. No. 15140-122), 10 μg/mL Vitamin C (Sigma, Cat. No. A-4544), and 1% charcoal filtered Fetal Bovine Serum (HyClone, Cat. No. SH30068.02). The next day, wells are replaced with fresh media. Cells are treated with Vitamin D (Sigma, Cat. No. D1530) to a final concentration of 10 nM, and with the test compounds in concentrations of 10^−6 M to 10^−9 M, in a total volume of 200 μL per well. Samples are done in duplicates. […] Positive control wells receive Vitamin D only, without compounds, and represent maximum (100%) amount of osteocalcin production. Plates are incubated at 37° C. incubator for 48 hours and supernatants are harvested at the end of incubation. Amounts of osteocalcin in the supernatants are determined by the Glype osteocalcin ELISA kit (Zymed, Cat. No. 99-0054) according to manufacture's protocol. Inhibition of osteocalcin by test compounds is expressed in percentage relative to positive controls. IC50 values of the test compounds are derived by non-lineal curve fitting.

Row | SMILES | activity in the GR binding assay [1] | melting point | inhibition of the vitamin D stimulated production of osteocalcin [2]
1 | CC(C)(CC(O)(Cn1cc(Cl)c(=O)c2cnccc21)C(F)(F)F)c1cccc2c1OCC2 (centres unmarked) [3-Chloro-1-[4-(2,3-dihydrobenzofuran-7-yl)-2-hydroxy-4-methyl-2-trifluoromethylpentyl]-1H-[1,6]naphthyridin-4-one] | potent activity | 158 to 160 °C | –
2 | CC(C)(CC(O)(Cn1cc(Br)c(=O)c2sccc21)C(F)(F)F)c1cccc2c1OCO2 (centres unmarked) [4-(4-Benzo[1,3]dioxol-4-yl-2-hydroxy-4-methyl-2-trifluoromethylpentyl)-6-bromo-4H-thieno[3,2-b]pyridin-7-one] | potent activity | 197 to 198 °C | –
3 | CC(C)(CC(O)(Cn1ccc(=O)c2sccc21)C(F)(F)F)c1cc(-c2cccnc2)ccc1O (centres unmarked) [4-[2-Hydroxy-4-(2-hydroxy-5-pyridin-3-ylphenyl)-4-methyl-2-trifluoromethylpentyl]-4H-thieno[3,2-b]pyridin-7-one] | potent activity | – | inhibit the vitamin D stimulated production of osteocalcin
4 | CC(C)(CC(O)(Cn1ccc(=O)c2sccc21)C(F)(F)F)c1cc(F)ccc1O (centres unmarked) [4-[4-(5-Fluoro-2-hydroxyphenyl)-2-hydroxy-4-methyl-2-trifluoromethylpentyl]-4H-thieno[3,2-b]pyridin-7-one] | potent activity | – | inhibit the vitamin D stimulated production of osteocalcin
5 | CC(C)(CC(O)(Cn1cc(Cl)c(=O)c2sccc21)C(F)(F)F)c1cc(-c2cccnc2)ccc1O (centres unmarked) [6-Chloro-4-[2-hydroxy-4-(2-hydroxy-5-pyridin-3-ylphenyl)-4-methyl-2-trifluoromethylpentyl]-4H-thieno[3,2-b]pyridin-7-one] | potent activity | – | inhibit the vitamin D stimulated production of osteocalcin
6 | CC(C)(CC(O)(Cn1cc(Cl)c(=O)c2sccc21)C(F)(F)F)c1cc(-c2cncnc2)ccc1O (centres unmarked) [6-Chloro-4-[2-hydroxy-4-(2-hydroxy-5-pyrimidin-5-ylphenyl)-4-methyl-2-trifluoromethylpentyl]-4H-thieno[3,2-b]pyridin-7-one] | potent activity | – | inhibit the vitamin D stimulated production of osteocalcin
7 | CC(C)(CC(O)(Cn1cc(Cl)c(=O)c2sccc21)C(F)(F)F)c1cc(-c2cncnc2)cc2c1OCC2 (centres unmarked) [6-Chloro-4-[2-hydroxy-4-methyl-4-(5-pyrimidin-5-yl-2,3-dihydrobenzofuran-7-yl)-2-trifluoromethylpentyl]-4H-thieno[3,2-b]pyridin-7-one] | potent activity | – | –
8 | CC(C)(CC(O)(Cn1cc(Cl)c(=O)c2sccc21)C(F)(F)F)c1cccc2c1OCC2 (centres unmarked) [6-Chloro-4-[4-(2,3-dihydrobenzofuran-7-yl)-2-hydroxy-4-methyl-2-trifluoromethylpentyl]-4H-thieno[3,2-b]pyridin-7-one] | potent activity | – | –

— patent publication US20090176807A1, “GLUCOCORTICOID MIMETICS, METHODS OF MAKING THEM, PHARMACEUTICAL COMPOSITIONS, AND USES THEREOF” (priority 2005, published 2009)
